Test results published in the METLIN SMRT retention time set (Domingo-Almenara et al. 2019).

Experiment: gradient 5% acetonitrile 3 min, to 50% in 2 min, to 85% in 15 min, held 3 min, 100 µL/min
Conditions: column: Zorbax Extend-C18 2.1 x 50 mm; eluents: water / acetonitrile, 0.1% formic acid
Procedure, shortened: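 Standards, all pure, were combined into mixtures of ~100 molecules and run at 100 μL/min on a Zorbax Extend-C18 column (2.1 × 50 mm, 1.8 μm) with water and acetonitrile, each containing 0.1% formic acid. A coupled quadrupole time-of-flight mass spectrometer operated in positive and negative ionization mode. Retention time values come from computationally picked adduct peaks, each inspected manually.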

SMILES	RP-LC retention time [s]
CC(Oc1ccccc1)C(=O)N1CCN(c2nc(CN3CCCCC3)cs2)CC1 (stereo not drawn)	650
O=C(NCCCN1CCCC1=O)c1cc2c(s1)CCN(C(=O)c1ccc(F)cc1)C2	670
CNC(=O)[C@H]1O[C@@H](n2cnc3c(NCc4ccc(N)cc4)ncnc32)C(O)[C@H]1O (stereo partly drawn)	569
COCCCNC(=O)C1CCN(c2nccnc2Sc2cccc(C)c2)CC1	886
Cc1ccc(NC(=O)c2nc(C(C)C)oc2C)cc1F	1140
CCCN1CCn2cc(C(=O)NC(C)c3ccccc3)nc2C1 (stereo not drawn)	603
CCC1Oc2ccc(C)cc2N(CC(=O)NCCCN2CC(C)CC(C)C2)C1=O (stereo not drawn)	708
CC(C)c1ccc(NC(=O)C2CCN(C(=O)c3ncn4c3COC(c3ccccc3)C4)CC2)cc1 (stereo not drawn)	914
Cc1ccccc1NC(=O)N(C)CC1CCOCC1	726
Cc1cc(NC(=O)C2CCN(C(=O)Cc3c(C)noc3C)CC2)no1	621
Cc1ccn2cc(C(=O)NCCC(C)C)nc2c1	640
O=C(Nc1ccc(N2CCN(C3CCCC3)C2=O)nc1)c1ccc(Br)cc1	876
Cc1ccccc1NC(=O)C1CCN(C(=O)C2Sc3ccccc3NC2=O)CC1 (stereo not drawn)	741
Cc1ccc(CNC(=O)C2CCN(S(=O)(=O)c3cc(C(=O)N(C)C)cs3)CC2)cc1	762
CCn1ccc(C(=O)N2CC(n3cc(COC)nn3)C2)n1	605
Cc1ccc(C)c(NC(=O)C2CCCN(S(=O)(=O)c3cn(C(C)C)cn3)C2)c1 (stereo not drawn)	781
O=C(NCCN1CCCC1)C1CCCN(c2ncnc3c2nc2n3CCCCC2)C1 (stereo not drawn)	591
CC1=C(c2ccc(F)cc2)S(=O)(=O)N=C1N1CCCN(C(=O)c2ccsc2)CC1	802
O=C(Cn1ncc2c(c1=O)N(C1CC1)C(=O)CS2)NC1CCCC1	615

SMILES	RP-LC retention time [s]
CC(C)c1cc(C(=O)Nc2ccc(F)cc2)nn1C1CCS(=O)(=O)C1 (stereo not drawn)	860
O=C(COc1ncccn1)N1CCN(c2ncccn2)CC1	579
Cc1cc(C)cc(C(=O)N2CCN(c3nc(C)cc(N4CCCCC4)n3)CC2)c1	765
CC1CCN(c2cc(-n3cnc(C(=O)NCc4ccc5c(c4)OCO5)c3)ncn2)CC1	964
O=C(Nc1ccccc1)C1CCCN(c2cnc3nccnc3c2)C1 (stereo not drawn)	703
CCCC(=O)N1CCC(C(=O)NCCc2cscn2)CC1	596
O=C([C@@H]1C[C@H](F)CN1C(=O)Nc1cccc(C(F)(F)F)c1)N1CCOCC1	698
CCn1cc(C)c(C(=O)O)c1CC(=O)Nc1ccc(Cl)cn1	835
CCN(CC)Cc1ccc2c(c1)CN(C(=O)NC1CCCC1)CCO2	558
Cn1c(N2CCCC(C(=O)Nc3ccc(F)cc3F)C2)cc(=O)n(C)c1=O (stereo not drawn)	700
Cc1cccc(NC(=O)C2CCCN(S(=O)(=O)c3c[nH]c(C(=O)N4CCCCCC4)c3)C2)c1 (stereo not drawn)	922
CCOc1ccccc1C(=O)n1nc(C)c(S(=O)(=O)N2CCCC2)c1C	1040
CC(C)C1c2nccn2CCCN1C(=O)c1n[nH]c(=O)c2ccccc12 (stereo not drawn)	569
O=C(NCc1ccccn1)c1ccc2ncnc(N3CCCCC3)c2c1	551
Cc1cc(OC(C)C(=O)N2CCC3(O)CCCCC3C2)c2c3c(c(=O)oc2c1)CCC3 (stereo not drawn)	820
CC(C)n1cc(CN2CCCCCNC(=O)[C@@H]3CCC[C@@H]32)c2ccccc21	701
O=C(C1CCCN(c2nnc(N3CCCC3=O)s2)C1)N1CCN(c2ccccn2)CC1 (stereo not drawn)	582
CCOC(=O)c1cc2ccsc2n1CC(=O)NCCN1CCN(C)CC1	600

More lines, now with the values ahead:

RP-LC retention time [s]	SMILES
672	Cc1cccc(-c2nnc(-c3nc(NCCc4cnc[nH]4)c4ccccc4n3)o2)c1
896	COc1ccc(NC(=O)CSc2nc3ccccc3o2)c(OC)c1
1050	COCCn1cc(C(=O)Nc2ccc(Cl)cc2)c2nn(-c3ccccc3)c(=O)c-2c1
661	COc1cc(C(CC(=O)N2CCCC2)N2Cc3ccccc3C2=O)cc(OC)c1OC (stereo not drawn)
947	COc1cccc(-c2noc(CCn3nc(-c4cccc(Cl)c4)ccc3=O)n2)c1OC
656	CS(=O)(=O)Nc1cccc(NC(=O)c2coc(NC(=O)c3ccccc3)n2)c1
1190	CCCCC(CC)C(=O)Nc1nc(-c2ccc(F)cc2)cs1 (stereo not drawn)
594	CCN(CC)C(=O)c1ccc2c(c1)N(CC(=O)NCc1ccccn1)C(=O)CO2
670	CCc1nn2c(CNC(=O)Cc3ccc(OC)cc3Cl)c(C)nc2s1
1270	CCc1ccc(OCc2nc(CC(=O)Nc3nc(-c4ccc(C)cc4)cs3)cs2)cc1
1080	CCc1nc2cc(-c3noc(-c4ccc(OC)cc4OC)n3)ccc2o1
1280	Cc1ccc(-c2noc(-c3cccc(S(=O)(=O)N4CCCC4)c3)n2)cc1
724	CN1c2ccccc2C(=O)NC12CCN(C(=O)NCc1ccc(F)cc1)CC2
704	COc1ccc(NC(=O)C2CCN(c3nnc4ccccn34)CC2)cc1C(F)(F)F
594	CCC(C)NC(=O)N1CCc2c(c(-c3nc(-c4ccc(F)cc4)no3)nn2C)C1 (stereo not drawn)
666	Cc1c(Cl)cccc1NC(=O)N1CCN(CCn2c(C(F)(F)F)nc3cccnc32)CC1
774	COC(=O)c1ccc(NC(=O)Cn2nc3nc(N4CCCC(C)C4)ccn3c2=O)cc1 (stereo not drawn)
616	COc1ccc(NC(=O)Nc2ccc(-c3cn4cccnc4n3)cc2)cc1
783	O=C(NCc1ccco1)C1CCN(Cc2cc3ccccc3n2Cc2ccc(Cl)cc2)CC1
1000	COc1ccc(N2CC(c3nc(-c4ccc(Cl)cc4)no3)CC2=O)c(OC)c1 (stereo not drawn)
814	CCOC(=O)c1cccc(NS(=O)(=O)c2cc(-c3c(CC)noc3NC(C)=O)ccc2OC)c1
581	O=C(Nc1ccc(C(F)(F)F)cc1)c1cn(CC(O)c2ccccc2)nn1 (stereo not drawn)
816	CC(Cc1ccco1)NC(=O)CN1C(=O)CN(C(=O)NCc2ccccc2)c2ccccc21 (stereo not drawn)
822	CCc1nn2c(CNC(=O)c3ccn(CC)n3)c(-c3ccccc3)nc2s1
861	COc1ccc(-n2cc(C(=O)OCc3cc(=O)n4ccccc4n3)c3ccccc3c2=O)cc1
733	Cc1ccccc1NC(=O)C1CC(=O)N(c2n[nH]c3cccc(F)c23)C1 (stereo not drawn)

RP-LC retention time [s]	SMILES
589	COc1ccc(C(=O)CSc2nc(CC(=O)NCc3cccnc3)cs2)cc1
1300	CCOc1nc2ccccc2nc1N1CCCC(C(=O)N2CCN(c3ccc(F)cc3)CC2)C1 (stereo not drawn)
777	CCNC(=O)c1sc2nc(-c3ccc(F)cc3)c(NCCOC)n2c1C
1100	CCCN1C(=O)COc2ccc(-c3noc(-c4ccc(OC)cc4OC)n3)cc21
976	COc1ccccc1/C=C/c1nc(-c2cccc(-c3ccn[nH]3)c2)no1
834	COc1ccc(CNC2=NCCNC23CCN(S(=O)(=O)c2c(C)cc(C)cc2C)CC3)cc1
1070	O=C(Cn1cccc(-c2nc(-c3ccc(Br)cc3)no2)c1=O)N1CCCc2ccccc21
764	O=C(c1ccc(F)cc1Cl)N1CCC2(CC1)NC(=O)N(CCOc1ccccc1)C2=O
572	CC(=O)Nc1ccc(OCC(=O)NC2CCN(Cc3ccccc3)CC2)nc1
797	Cc1ccc2c(Nc3cccc(C)c3C)c(-c3nc(C)no3)cnc2n1
780	CC1CCCN(c2nc(=O)n(CC(=O)Nc3ccc4c(c3)OCCO4)c3ccccc23)C1 (stereo not drawn)
715	CCn1c(=O)n(CC)c2cc(S(=O)(=O)c3ccccc3)c(NC(C)=O)cc21
797	Cc1ccc(C(=O)NC2CCN(c3ccccc3)C2=O)c(C)c1 (stereo not drawn)
1160	CCOc1ccccc1-c1noc(Cn2c(=O)n(Cc3ccccc3Cl)c(=O)c3sccc32)n1
706	CN(CCNC(=O)C1c2ccccc2C(=O)N(C)C1c1cccs1)C1CCCCC1 (stereo not drawn)
1090	COc1ccc(Cn2c(=O)c3sccc3n(Cc3nc(-c4ccccc4Cl)no3)c2=O)cc1
943	Cc1noc(-c2ccc(OC3CN(S(=O)(=O)c4c(C)noc4C)C3)cc2)n1
981	Cc1ccc(Cn2c(N3CCCC(C(=O)NCc4ccccc4F)C3)nc3ccsc3c2=O)cc1 (stereo not drawn)
1030	CC1(c2cccc3ccccc23)OC(=O)c2ccccc21 (stereo not drawn)
673	CNCc1ccc(-c2cccc(C(F)(F)F)c2)o1
815	Cc1nnc(NC(=O)c2ccc(OCc3nc(-c4ccco4)cs3)cc2)s1
730	CCOc1ccccc1NC(=O)CSc1nnc(-c2cccnc2)o1
848	CC1(C(=O)NCc2ccc(F)cc2)CN(S(C)(=O)=O)CC(=O)N1Cc1ccccc1Cl (stereo not drawn)
639	Cc1ccccc1Cn1cc(CCC(=O)NCCN2CCOCC2)c2ccccc21
720	CCOc1ccc(NC(=O)N2CCC3(C2)C(=O)Nc2ccccc23)cc1 (stereo not drawn)
